Test results taken from publication PMC11209699 (ACS Omega, 2024).
Several values for one entry are separate records, joined by “and”; a condition that tells them apart may be missing. Equal values may be shown once. Entries after “also recorded” stand apart in the source; their conditions may differ.

Assays:
MCL-1 = MCL-1 (Homo sapiens, UniProt Q07820); experiment: fluorescence polarization; conditions: for binding to MCL-1 (in words): tested up to 100 μM
RS4;11 cells = experiment: CCK-8 cell viability; format: cell-based; conditions: Homo sapiens, RS4-11, 48 h, read-out: cytotoxicity (IC50) RS4;11
H929 cells = experiment: CCK-8 cell viability; format: cell-based; conditions: Homo sapiens, NCI-H929, 48 h, read-out: cytotoxicity (IC50) H929
CCK-8 cell viability = format: cell-based; conditions: human, HEK293T cells
HeLa cells = experiment: CCK-8 cell viability; format: cell-based; conditions: Homo sapiens, 48 h, read-out: cytotoxicity (IC50) HeLa
HL-60 cells = experiment: CCK-8 cell viability; format: cell-based; conditions: Homo sapiens, HL-60, 48 h, read-out: cytotoxicity (IC50) HL-60
MV-4–11 cells [1] = experiment: CCK-8 cell viability; format: cell-based; conditions: Homo sapiens, MV4-11, 48 h, read-out: cytotoxicity (IC50) MV-4–11
BCL-2 = BCL-2 (Homo sapiens, UniProt P10415); experiment: fluorescence polarization; conditions: FP assay
BCL-2, sequence (P10415 1-207): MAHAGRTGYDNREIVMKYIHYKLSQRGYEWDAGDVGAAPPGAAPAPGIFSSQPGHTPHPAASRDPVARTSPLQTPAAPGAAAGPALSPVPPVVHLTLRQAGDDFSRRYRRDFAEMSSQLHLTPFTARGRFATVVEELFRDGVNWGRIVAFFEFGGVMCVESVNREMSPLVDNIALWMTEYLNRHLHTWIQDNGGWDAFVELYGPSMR

MV-4–11 cells [2] = experiment: kinetics study in cells; format: in vitro ADME; conditions: GQN-B37-Me given to MV-4–11 cells at 40 μM, monitored over 8 h
BCL-xL = BCL-xL (Homo sapiens, UniProt Q07817); experiment: fluorescence polarization; conditions: FP assay, tested up to 100 μM
BCL-xL, sequence (Q07817 45-233): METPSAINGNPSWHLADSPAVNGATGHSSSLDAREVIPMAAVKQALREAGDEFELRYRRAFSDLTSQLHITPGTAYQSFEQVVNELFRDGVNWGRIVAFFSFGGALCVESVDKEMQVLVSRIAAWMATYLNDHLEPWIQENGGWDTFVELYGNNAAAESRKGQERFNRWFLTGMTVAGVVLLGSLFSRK

[3] = stability in liver microsomes; format: in vitro ADME; conditions: rat, pooled rat liver microsomes
stability in GSH = format: in vitro ADME; conditions: exposure to GSH for up to 2 h
[4] = stability in liver microsomes; format: in vitro ADME; conditions: human
MV-4–11 cells [5] = experiment: annexin V and PI double-staining flow cytometry; format: cell-based; conditions: 24 h
[6] = target: MCL-1/BIM interaction in H929 cells (Homo sapiens, UniProt Q07820); experiment: coimmunoprecipitation; format: cell-based; conditions: 10 μM, 10 h
MCL-1/BIM interaction in H929 cells, sequence (Q07820 whole entry): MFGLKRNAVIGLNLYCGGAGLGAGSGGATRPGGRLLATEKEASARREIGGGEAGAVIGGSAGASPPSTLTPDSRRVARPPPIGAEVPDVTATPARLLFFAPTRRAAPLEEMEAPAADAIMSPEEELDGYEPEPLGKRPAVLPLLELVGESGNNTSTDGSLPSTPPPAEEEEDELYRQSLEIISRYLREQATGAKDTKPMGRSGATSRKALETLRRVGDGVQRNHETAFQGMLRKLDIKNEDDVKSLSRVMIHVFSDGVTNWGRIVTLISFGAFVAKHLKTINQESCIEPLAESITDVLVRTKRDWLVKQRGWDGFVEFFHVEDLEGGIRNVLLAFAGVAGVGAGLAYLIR

[7] = stability in liver microsomes; format: in vitro ADME; conditions: monkey, pooled monkey liver microsomes
[8] = stability in liver microsomes; format: in vitro ADME; conditions: dog, pooled dog liver microsomes
MV-4–11 xenograft mice [9] = format: in vivo, mouse; conditions: after 20 days treatment
[10] = system: PARP and caspase-3 in H929 cells; experiment: Western blot of PARP and caspase-3 cleavage; format: cell-based; conditions: 5 to 40 μM, 24 h
MV-4–11 xenograft mice [11] = experiment: in vivo antitumor study, MV-4–11 xenograft mouse model; conditions: for effect on body weight after 20 days (in words): 90% confidence level vs vehicle

MCL-1, sequence (Q07820 152-327): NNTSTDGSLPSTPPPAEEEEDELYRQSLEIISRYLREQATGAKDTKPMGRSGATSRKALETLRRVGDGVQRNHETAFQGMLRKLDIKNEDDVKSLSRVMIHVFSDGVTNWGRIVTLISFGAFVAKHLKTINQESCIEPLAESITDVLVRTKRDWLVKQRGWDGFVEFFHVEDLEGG

| SMILES | IC50 (RS4;11 cells) | IC50 (H929 cells) | IC50 at 48 h (CCK-8 cell viability) | IC50 (HeLa cells) | IC50 (HL-60 cells) | IC50 (MV-4–11 cells [1]) | other results |
| --- | --- | --- | --- | --- | --- | --- | --- |
| CC1(C)CCC(CN2CCN(c3ccc(C(=O)NS(=O)(=O)c4ccc(NCC5CCOCC5)c([N+](=O)[O-])c4)c(Oc4cnc5[nH]ccc5c4)c3)CC2)=C(c2ccc(Cl)cc2)C1 [ABT-199, reference compound] |  |  |  |  |  |  | binding to MCL-1 (in words) (MCL-1; FP assay): no obvious binding |
| COC(=O)[C@H](Cc1c[nH]c2ccccc12)NC(=O)/C=C/c1cn(-c2ccccc2)nc1-c1ccc2ccccc2c1 [GQN-B18-Me, Methyl-(E)-(3-(3-(naphthalen-2-yl)-1-phenyl-1H-pyrazol-4-yl)acryloyl)-L-tryptophanate] | > 20 µM | 7.97 ± 1.01 µM | > 20 µM | > 20 µM | > 20 µM | > 20 µM | binding to MCL-1 (in words) (MCL-1; FP assay): totally abolished; also recorded: complete loss of binding |
| O=C(/C=C/c1cn(-c2ccccc2)nc1-c1ccc2ccccc2c1)N[C@@H](Cc1c[nH]c2ccccc12)C(=O)O [GQN-B18-E, (E)-(3-(3-(Naphthalen-2-yl)-1-phenyl-1H-pyrazol-4-yl)acryloyl)-L-tryptophan] | > 20 µM | > 50 µM | > 20 µM | > 50 µM | > 20 µM | > 50 µM |  |
| O=C(/C=C\c1cn(-c2ccccc2)nc1-c1ccc2ccccc2c1)Nc1ccc(C(=O)O)cc1 [LC126, (Z)-4-(3-(3-(Naphthalen-2-yl)-1-phenyl-1H-pyrazol-4-yl)acrylamido)benzoic Acid] |  |  |  |  |  |  | Ki (MCL-1; Ki for MCL-1 (text and Figure 2), FP assay): 13 µM and ~10 µM; Ki (BCL-2; Ki for BCL-2 (text and Figure 2)): 10 µM and ~10 µM |
| O=C(/C=C/c1cn(-c2cccc(Cl)c2)nc1-c1ccc(O)cc1)N[C@@H](Cc1c[nH]c2ccccc12)C(=O)O [GQN-B37-E, (E)-(3-(1-(3-Chlorophenyl)-3-(4-hydroxyphenyl)-1H-pyrazol-4-yl)acryloyl)-L-tryptophan] | > 50 µM | > 50 µM | > 20 µM | > 50 µM | > 50 µM | > 50 µM | time at which intracellular GQN-B37-E reached a peak (MV-4–11 cells [2]): 3 h; ligand efficiency (LE) (MCL-1; binding energy divided by the number of heavy atoms, MCL-1): 0.22 kcal/mol; binding to BCL-2 (in words) (BCL-2; tested up to 100 μM): without apparent binding; binding to BCL-XL (in words) (BCL-xL): without apparent binding |
| O=C(/C=C/c1cn(-c2cccc(Cl)c2)nc1-c1ccc(C2CCCCC2)cc1)N[C@@H](Cc1c[nH]c2ccccc12)C(=O)O [GQN-B33-E, (E)-(3-(1-(3-Chlorophenyl)-3-(4-cyclohexylphenyl)-1H-pyrazol-4-yl)acryloyl)-L-tryptophan] | > 20 µM | > 50 µM | > 20 µM | > 50 µM | > 50 µM | > 20 µM |  |
| COC(=O)[C@H](Cc1c[nH]c2ccccc12)NC(=O)/C=C/c1cn(-c2cccc(Cl)c2)nc1-c1ccc(N)cc1 [GQN-B35-Me, Methyl-(E)-(3-(3-(4-aminophenyl)-1-(3-chlorophenyl)-1H-pyrazol-4-yl)acryloyl)-L-tryptophanate] | > 20 µM | 3.89 ± 0.07 µM | > 20 µM | > 50 µM | > 20 µM | 20.52 ± 0.12 µM |  |
| COC(=O)[C@H](Cc1c[nH]c2ccccc12)NC(=O)/C=C/c1cn(-c2cccc(Cl)c2)nc1-c1ccc(O)cc1 [GQN-B37-Me, Methyl-(E)-(3-(1-(3-chlorophenyl)-3-(4-hydroxyphenyl)-1H-pyrazol-4-yl)acryloyl)-L-tryptophanate] | 15.9 ± 0.98 µM | 3.71 ± 0.33 µM | > 20 µM | > 20 µM | > 20 µM | 5.57 ± 0.09 µM | half-life at 1.4 μM [3]: 1.92 h; stability following incubation with GSH (in words) (stability in GSH): basically intact; binding to MCL-1 (in words) (MCL-1; FP assay): complete loss of binding; half-life at 1.4 μM [4]: 0.77 h; induction of late apoptosis (in words) (MV-4–11 cells [5]; doses ranging from 1 to 40 μM): induced late apoptosis in a clear dose-dependent manner; disruption of the MCL-1/BIM interaction [6]: disrupts the MCL-1/BIM interaction considerably; half-life at 1.4 μM [7]: 0.58 h; half-life at 1.4 μM [8]: 1.93 h; lesions in liver, kidney and heart (HE staining) (MV-4–11 xenograft mice [9]; 12.5 and 50 mg/kg): no evidence of lesions; necrosis of tumor tissues (HE staining) (MV-4–11 xenograft mice [9]; 12.5 and 50 mg/kg): dose-dependent necrosis of tumor tissues; level of proliferation in tumor tissues (Ki-67) (MV-4–11 xenograft mice [9]; compared to the blank group): significantly reduced; cleavage of full-length PARP (116 to 89 kDa) [10]: dose-dependent cleavage; tumor growth inhibition on day 20 (MV-4–11 xenograft mice [11]; 12.5 mg/kg i.p. every 2 days for 20 days): 30%; effect on body weight after 20 days (in words) (MV-4–11 xenograft mice [11]; 12.5 mg/kg i.p. every 2 days): did not cause significant body weight loss; tumor growth inhibition on day 20 (MV-4–11 xenograft mice [11]; 50 mg/kg i.p. every 2 days for 20 days): 43%; effect on body weight after 20 days (in words) (MV-4–11 xenograft mice [11]; 50 mg/kg i.p. every 2 days): affected body weight |
| O=C(/C=C/c1cn(-c2cccc(Cl)c2)nc1-c1ccc(N2CCOCC2)cc1)N[C@@H](Cc1c[nH]c2ccccc12)C(=O)O [GQN-B36-E, (E)-(3-(1-(3-Chlorophenyl)-3-(4-morpholinophenyl)-1H-pyrazol-4-yl)acryloyl)-L-tryptophan] | > 50 µM | > 50 µM | > 20 µM | > 50 µM | > 50 µM | > 50 µM |  |
| COC(=O)[C@H](Cc1c[nH]c2ccccc12)NC(=O)/C=C/c1cn(-c2cccc(Cl)c2)nc1-c1ccc(C2CCCCC2)cc1 [GQN-B33-Me, Methyl-(E)-(3-(1-(3-chlorophenyl)-3-(4-cyclohexylphenyl)-1H-pyrazol-4-yl)acryloyl)-L-tryptophanate] | > 20 µM | 4.64 ± 0.01 µM | > 20 µM | > 50 µM | > 50 µM | > 20 µM |  |
| COC(=O)[C@H](Cc1c[nH]c2ccccc12)NC(=O)/C=C/c1cn(-c2cccc(Cl)c2)nc1-c1ccc(N2CCOCC2)cc1 [GQN-B36-Me, Methyl-(E)-(3-(1-(3-chlorophenyl)-3-(4-morpholinophenyl)-1H-pyrazol-4-yl)acryloyl)-L-tryptophanate] | > 20 µM | > 20 µM | > 20 µM | > 50 µM | > 20 µM | > 20 µM |  |
| Nc1ccc(-c2nn(-c3cccc(Cl)c3)cc2/C=C/C(=O)N[C@@H](Cc2c[nH]c3ccccc23)C(=O)O)cc1 [GQN-B35-E, (E)-(3-(3-(4-Aminophenyl)-1-(3-chlorophenyl)-1H-pyrazol-4-yl)acryloyl)-L-tryptophan] | > 50 µM | > 50 µM | > 20 µM | > 50 µM | > 50 µM | > 50 µM |  |
| Cc1c2c(nn1C)CSCc1cc(n(C)n1)CSc1cc(c3ccccc3c1)OCCCc1c(C(=O)O)n(C)c3c-2c(Cl)ccc13 [AZD5991, reference compound] |  | 0.05 ± 0.01 µM | > 20 µM |  |  | < 0.01 µM | cells in quadrant Q3-2 (late apoptosis, annexin V (+) and PI (+)) (MV-4–11 cells [5]; 1 μM, MV-4–11 cells): ~75%; tumor growth inhibition on day 20 (MV-4–11 xenograft mice [11]; 10 mg/kg i.p. every 2 days for 20 days): 56%; effect on body weight after 20 days (in words) (MV-4–11 xenograft mice [11]; 10 mg/kg i.p. every 2 days): caused significant body weight loss |
